According to patent US11793775B2, “Combined therapy for treating Alzheimer's disease” (MERRY LIFE BIOMEDICAL COMPANY, LTD., priority 2021, dated 2023):

Experiments:
[1] = tested on: APP/PS1 mice; experiment: Morris water maze; assay type: in vivo; settings: training course, compared with wt
Experimental: (§1) For study of combination treatment, APP/PS1 mice were randomly assigned into four groups and were subjected to the treatments at 3 months of age (the early/prodromal stage of AD) for 4 months. Wt littermates (n=10) were also included for behavioral tests as a WT control group at 7 months. […] Body weight was recorded weekly. After 4 months of treatments, mice at age of 7 months were subjected to the following examinations.
To evaluate spatial learning and memory deficits in APP/PS1 mice, a circular pool of 120 cm in diameter and 40 cm in height was used. The pool was filled with milk at 22-24 ° C. to approximately 20 cm in deep. A hidden platform was submerged 1 cm below the surface of milk. All experimental mice were transferred to the behavior testing room 30 min prior to the water maze to habituate to the test environment. During the training course, mice received 3 trials per day with a 60-minute inter-trial interval for 6 days. Probe test without the hidden platform was performed at day 7 and mice were allowed to investigate for 60 seconds. An overhead camera and a computerized video imaging analysis system were used to analyze the swimming paths and the escape latency.

[2] = tested on: microglia; experiment: Microglial Aβ phagocytosis by co-localization of Iba1 and Aβ plaques; assay type: in vivo; settings: brain of APP/PS1 mice, FIG. 5A
Experimental: as §1
Brain sections were fixed in 4% paraformaldehyde followed by cryoprotection with 30% sucrose in 1×PBS. Floating sections at 30 μm thickness were stored in 1×PBS with 0.05% sodium azide at 4° C. until use. Amylo-Glo RTD™ (TR-400-AG, Biosensis, Thebarton, Australia) was used for detection of amyloid-β (Aβ) plaques in the brain sections per manufacturer's instruction. The sections were mounted on the slide covered with mounting medium (Vectashield H-1000, Vector Laborotories, Burlingame, Calif., USA). Images were acquired using Leica confocal microscopy imaging system. […] Quantification for sizes of AP deposits larger or smaller than 500 μm^2 were presented. […]
Since microglia are primary immune cells in the brain responsible for Aβ clearance, treatment effects on microglial Aβ phagocytosis was evaluated by co-localization of microglia and Aβ plaques using confocal microscopy.

[3] = tested on: Aβ plaques; experiment: Aβ plaque deposition by Amylo-glo staining of brain sections; assay type: in vivo; settings: cortex and hippocampus, APP/PS1 mice at 7 months, 4 months treatment, vs APP/PS1 controls
Experimental: as §1
Brain sections were fixed in 4% paraformaldehyde followed by cryoprotection with 30% sucrose in 1×PBS. Floating sections at 30 μm thickness were stored in 1×PBS with 0.05% sodium azide at 4° C. until use. Amylo-Glo RTD™ (TR-400-AG, Biosensis, Thebarton, Australia) was used for detection of amyloid-β (Aβ) plaques in the brain sections per manufacturer's instruction. The sections were mounted on the slide covered with mounting medium (Vectashield H-1000, Vector Laborotories, Burlingame, Calif., USA). Images were acquired using Leica confocal microscopy imaging system. Numbers of Aβ deposits and fluorescent area positive for AP deposits were normalized with total area of the section using MetaMorph imaging software. Quantification for sizes of AP deposits larger or smaller than 500 μm^2 were presented. […]

[4] = tested on: APP/PS1 mice; experiment: Nesting test; assay type: in vivo
Experimental: as §1
Before the test for nesting, mice were individually housed for 5 hr. A nestlet pressed-cotton square (Ancare) was then placed into each cage 1 hour before the start of the dark cycle. Pictures of a nestlet were taken at indicated time points, and the entire test underwent for 52 hr. Nest construction was scored by two persons unaware of treatments using a 5-point scaling system as described previously (Yeh et al. 2015). Briefly, a score of 1 indicates a >90% intact nestlet, whereas a score of 5 indicates a <10% intact nestlet and the construction of a nest with an obvious crater.

[5] = tested on: microglia; experiment: Morphological analyses of microglia (neurite outgrowth analyses); assay type: in vivo, APP/PS1 mice; settings: total length of cell-associated skeletonized outgrowth, FIG. 5G
[6] = Stability of TML-6 in TML-6 diet by LC/MS/MS; assay type: physicochemical; settings: rodent chow supplemented with TML-6, LC/MS/MS
Experimental: TML-6, a small molecule curcumin analog, was used in this study. A regular rodent chow (Laboratory Rodent Diet 5001) supplemented with TML-6 at 100 mg/kg rodent chow was provided by Merry Life Biomedical company, Ltd. Content, purity, and stability of TML-6 in TML-6 diet at different storage conditions were analyzed using LC/MS/MS via service provided by the Development Center for Biotechnology, Taiwan. TML-6 diet was stored at 4° C. and was added to mouse cages twice a week for ad libitum feeding regimens. Daily uptake of TML-6 in APP/PS1 mice was estimated based on average consumption of rodent chow supplemented with TML-6 at 100 mg/kg chow for 24 hr or 8 days. Briefly, three APP/PS1 mice were housed individually in metabolic cages with an apparatus for measuring food-intake. Estimated TML-6 uptake per kg body weight per day was calculated by multiplying the daily consumption of TML-6 supplemented chow by the amount of TML-6 in the chow divided by body weight.

SMILES: CCN(CC)C(=O)CC(C)(C(=O)/C=C/c1ccc(OC)c(OC)c1)C(=O)/C=C/c1ccc(OC)c(OC)c1 [TML-6]
- latency of finding the hidden platform [1]: comparable to that of wt
- microglial Aβ phagocytosis (co-localization of Iba1 and Aβ plaques) [2]: not affected
- Aβ depositions (Amylo-glo staining) [3]: lower levels of Aβ depositions
- nesting scores ([4]; two-way ANOVA, vs APP/PS1 controls, FIG. 4A): significant improvements
- slopes of nesting scores, p (linear regression) ([4]; vs APP/PS1 controls, FIG. 4B): 0.07173
- slopes of nesting scores, p (linear regression) ([4]; vs wt): 0.1648
- total outgrowth of microglia [5]: increased
- amount of TML-6 in rodent chow at various storage conditions [6]: stable
